Tests used:
Format in all cases: cell-based
[1] = system: MV-4-11 (human biphenotypic leukaemia); experiment: In vitro cytotoxicity test, MTT assay, 72 h incubation with compound; settings: for IC50: MV-4-11 human biphenotypic leukaemia, MTT, 72 h; for SI MV-4-11: selectivity coefficient, BALB/3T3 versus MV-4-11
Protocol: (§1) In vitro cytotoxicity tests were performed according to the procedure described below. […] The solvent for further dilutions was a culture medium.
(§2) The experiments were repeated at least 3 times.
After 4 hours of incubation at 37° C., 80 μL of lysis buffer was added to each well.

[2] = In vitro cytotoxicity test on normal cells, SRB assay, 72 h incubation with compound; settings: mouse, balb/3t3 cells, normal murine fibroblasts, read-out: IC50 BALB/3T3
Protocol: Normal murine BALB/3T3 fibroblasts were also used in the tests for determining the selectivity coefficients of the compounds used in the assays.
as §1, §2

[3] = system: LoVo/DX (drug-resistant human colon cancer); experiment: In vitro cytotoxicity test, SRB assay, 72 h incubation with compound; settings: for IC50: LoVo/DX drug-resistant human colon cancer, SRB, 72 h; for RI: drug resistance coefficient, LoVo/DX versus LoVo, 4320 min; for SI LoVo/DX: selectivity coefficient, BALB/3T3 versus LoVo/DX
Protocol: as §1, §2

[4] = system: LoVo (drug-sensitive human colon cancer); experiment: as above; settings: for IC50: LoVo drug-sensitive human colon cancer, SRB, 72 h; for SI LoVo: selectivity coefficient, BALB/3T3 versus LoVo
Protocol: as §1, §2

[5] = system: MCF-7 (human breast cancer); experiment: as above; settings: for IC50: MCF-7 human breast cancer, SRB, 72 h; for SI MCF-7: selectivity coefficient, BALB/3T3 versus MCF-7
Protocol: as §1, §2

Hs294T (human melanoma) = experiment: as above; settings: for IC50: Hs294T human melanoma, SRB, 72 h; for SI Hs294T: selectivity coefficient, BALB/3T3 versus Hs294T
Protocol: as §1, §2

B16-F0 (murine melanoma) = experiment: as above; settings: for IC50: B16-F0 murine melanoma, SRB, 72 h; for SI B16-F0: selectivity coefficient, BALB/3T3 versus B16-F0
Protocol: as §1, §2

| Compound | IC50 ([1]; MV4-11) [nM] | SI MV-4-11 [1] | CC50 at 72 h [2] [nM] | IC50 [3] [nM] | RI [3] | SI LoVo/DX [3] | IC50 [4] [nM] | SI LoVo [4] | IC50 ([5]; MCF7) [nM] | SI MCF-7 [5] | IC50 (Hs294T (human melanoma); Hs 294T) [nM] | SI Hs294T (Hs294T (human melanoma)) | IC50 (B16-F0 (murine melanoma); Mus musculus, B16F0) [nM] | SI B16-F0 (B16-F0 (murine melanoma)) | IC50 [1] [nM] | IC50 [5] [nM] | IC50 (Hs294T (human melanoma)) [nM] | IC50 (B16-F0 (murine melanoma)) [nM] |
| --- | --- | --- | --- | --- | --- | --- | --- | --- | --- | --- | --- | --- | --- | --- | --- | --- | --- | --- |
| CCOC(=O)N[C@@H]1C=C[C@]2(O[C@H]([C@@H](CC)C(=O)[C@@H](C)[C@@H](O)[C@H](C)[C@@H]3O[C@@H]([C@@H](CC)C(=O)O)CC[C@@H]3C)[C@@H](C)C[C@H]2C)O[C@@]12CC[C@@](C)([C@H]1CC[C@](O)(CC)[C@H](C)O1)O2 [(19), C20-dehydroxy-C20-aminosalinomycin N-ethylcarbamate] | 40 | 24.3 | 970 | 43100 | 269.4 | 0.02 | 160 | 6.1 | 540 | 1.8 | 10 | 97.0 | 30 | 32.3 |  |  |  |  |
| CC[C@@H](C(=O)[C@@H](C)[C@@H](O)[C@H](C)[C@@H]1O[C@@H]([C@@H](CC)C(=O)O)CC[C@@H]1C)[C@H]1O[C@]2(C=C[C@@H](NC(=O)c3ccc(CCl)cc3)[C@]3(CC[C@@](C)([C@H]4CC[C@](O)(CC)[C@H](C)O4)O3)O2)[C@H](C)C[C@@H]1C [(16), C20-dehydroxy-C20-aminosalinomycin N-(4-chloromethyl)benzamide] | 30 | 83.3 | 2500 | 630 | 2.2 | 4.0 | 290 | 8.6 | 580 | 4.3 | 30 | 83.3 | 480 | 5.2 |  |  |  |  |
| CCCNC(=O)N[C@@H]1C=C[C@]2(O[C@H]([C@@H](CC)C(=O)[C@@H](C)[C@@H](O)[C@H](C)[C@@H]3O[C@@H]([C@@H](CC)C(=O)[O-])CC[C@@H]3C)[C@@H](C)C[C@H]2C)O[C@@]12CC[C@@](C)([C@H]1CC[C@](O)(CC)[C@H](C)O1)O2.[Na+] [(23), propylurea of C20-dehydroxy-C20-aminosalinomycin] | 1.1 | 1400.0 | 1540 | 150 | 2.5 | 10.3 | 60 | 25.7 | 370 | 4.2 | 10 | 154.0 | 70 | 22.0 |  |  |  |  |
| CC[C@@H](C(=O)[C@@H](C)[C@@H](O)[C@H](C)[C@@H]1O[C@@H]([C@@H](CC)C(=O)O)CC[C@@H]1C)[C@H]1O[C@]2(C=C[C@@H](NC(=O)CCl)[C@]3(CC[C@@](C)([C@H]4CC[C@](O)(CC)[C@H](C)O4)O3)O2)[C@H](C)C[C@@H]1C [(11), C20-dehydroxy-C20-aminosalinomycin N-chloroacetamide] | 280 | 9.2 | 2590 | 620 | 0.7 | 4.2 | 930 | 2.8 | 810 | 3.2 | 60 | 43.2 | 400 | 6.5 |  |  |  |  |
| CC[C@@H](C(=O)[C@@H](C)[C@@H](O)[C@H](C)[C@@H]1O[C@@H]([C@@H](CC)C(=O)O)CC[C@@H]1C)[C@H]1O[C@]2(C=C[C@@H](NC(=O)OC)[C@]3(CC[C@@](C)([C@H]4CC[C@](O)(CC)[C@H](C)O4)O3)O2)[C@H](C)C[C@@H]1C [(18), C20-dehydroxy-C20-aminosalinomycin N-methylcarbamate] | 70 | 25.1 | 1760 | 160 | 0.3 | 11.0 | 480 | 3.7 | 570 | 3.1 | 20 | 88.0 | 50 | 35.2 |  |  |  |  |
| CC[C@@H](C(=O)[C@@H](C)[C@@H](O)[C@H](C)[C@@H]1O[C@@H]([C@@H](CC)C(=O)O)CC[C@@H]1C)[C@H]1O[C@]2(C=C[C@@H](NC(=O)OCC(C)(C)C)[C@]3(CC[C@@](C)([C@H]4CC[C@](O)(CC)[C@H](C)O4)O3)O2)[C@H](C)C[C@@H]1C [(20), C20-dehydroxy-C20-aminosalinomycin N-neopentylcarbamate] | 360 | 9.0 | 3240 | 640 | 0.8 | 5.1 | 820 | 4.0 | 2380 | 1.4 | 280 | 11.6 | 640 | 5.1 |  |  |  |  |
| CCCCNC(=O)N[C@@H]1C=C[C@]2(O[C@H]([C@@H](CC)C(=O)[C@@H](C)[C@@H](O)[C@H](C)[C@@H]3O[C@@H]([C@@H](CC)C(=O)[O-])CC[C@@H]3C)[C@@H](C)C[C@H]2C)O[C@@]12CC[C@@](C)([C@H]1CC[C@](O)(CC)[C@H](C)O1)O2.[Na+] [(24), butylurea of C20-dehydroxy-C20-aminosalinomycin] | 1 | 800.0 | 800 | 110 | 1.6 | 7.3 | 70 | 11.4 | 400 | 2.0 | 40 | 20.0 | 50 | 16.0 |  |  |  |  |
| CC[C@@H](C(=O)[C@@H](C)[C@@H](O)[C@H](C)[C@@H]1O[C@@H]([C@@H](CC)C(=O)O)CC[C@@H]1C)[C@H]1O[C@]2(C=C[C@@H](NC(=O)CCCCl)[C@]3(CC[C@@](C)([C@H]4CC[C@](O)(CC)[C@H](C)O4)O3)O2)[C@H](C)C[C@@H]1C [(12), C20-dehydroxy-C20-aminosalinomycin N-4-chlorobutyramide] | 200 | 85.4 | 17100 | 1550 | 2.5 | 11.0 | 630 | 27.1 | 900 | 19.0 | 70 | 243.9 | 560 | 30.5 |  |  |  |  |
| CC[C@@H](C(=O)[C@@H](C)[C@@H](O)[C@H](C)[C@@H]1O[C@@H]([C@@H](CC)C(=O)O)CC[C@@H]1C)[C@H]1O[C@]2(C=C[C@@H](NC(=O)COC)[C@]3(CC[C@@](C)([C@H]4CC[C@](O)(CC)[C@H](C)O4)O3)O2)[C@H](C)C[C@@H]1C [(13), C20-dehydroxy-C20-aminosalinomycin N-methoxyacetamide] | 270 | 51.9 | 14000 | 2330 | 3.5 | 6.0 | 670 | 20.9 | 1310 | 10.7 | 60 | 233.5 | 530 | 26.4 |  |  |  |  |
| N.N.[Cl][Pt][Cl] [cisplatin, reference compound] |  |  |  | 8000 | 1.1 |  | 6970 |  |  |  |  |  |  |  | 3400 | 7170 | 4010 | 3840 |
| CC[C@@H](C(=O)[C@@H](C)[C@@H](O)[C@H](C)[C@@H]1O[C@@H]([C@@H](CC)C(=O)O)CC[C@@H]1C)[C@H]1O[C@]2(C=C[C@@H](N)[C@]3(CC[C@@](C)([C@H]4CC[C@](O)(CC)[C@H](C)O4)O3)O2)[C@H](C)C[C@@H]1C [(3), C20-aminosalinomycin, reference compound] | 5920 | 11.2 | 66400 | 20500 | 0.6 | 3.2 | 33100 | 2.0 | 34900 | 1.9 | 9730 | 6.8 | 9440 | 7.0 |  |  |  |  |

Reference: US12741974B2, “Compounds constituting C20-modified salinomycin derivatives, a method for obtaining the same, a composition containing the same, a use of said compounds and a method for obtaining an intermediate product” (FILECLO SP. Z O.O., priority 2020, dated 2021)
